# Like-named read-outs stand apart in the source and are kept apart here.
# Experiments:
# clinical = conditions: both, human, in vivo; for AUC(0-t): healthy volunteers, n = 8
# [1] = design: method as in Koch-Heier et al., manuscript in preparation; conditions: mice, 75 mg/kg; previously unpublished preclinical data; ref Koch-Heier et al., manuscript in preparation; cited from earlier work
# plasma binding = conditions: stated in discussion, no data shown
# MEK [2] = experiment: MEK inhibition in PBMCs of treated beagle dogs (pERK/ERK, Wes); format: in vivo; conditions: formulation 3, plasma concentrations until Cmax vs ERK phosphorylation in PBMCs
# Experimental: PBMCs were isolated from the same blood samples (30 µl mouse blood, 50 µl hamster blood, or 1 ml dog blood) used for pharmacokinetic analysis. After plasma separation as described in the section above (Blood sampling and preparation of plasma samples), the remaining red blood cells were lysed by adding 1 volume of red blood cell (RBC) lysis buffer (Thermo Fisher Scientific, Waltham, MA, United States) (300 µl for mice, 500 µl for hamster, and 10 ml for dogs). The samples were incubated for 15 min at RT and centrifuged at 500 x g for 5 min (RT). The supernatant was removed completely, and the pellet was washed twice with PBS. The PBMC cell pellets were store at −80°C until further analysis. […]
# The pharmacodynamic assessment was performed using the Wes™ (Simple Western™) system which uses capillary electrophoresis to separate, identify and quantify proteins of interest. A chemiluminescence signal for each identified protein is detected and the area under the peak is calculated, which is then used for quantification. The 0.1x Sample Buffer, 400 mM dithiothreitol (DTT) solution, 5x Fluorescence Master Mix, and the Biotinylated Ladder (ProteinSimple®, Abingdon, Oxford, United Kingdom) were prepared according to manufacturer’s instructions. […] The anti-rabbit secondary antibody (Cat# DM-001) was also purchased from ProteinSimple® and was ready to use. […]
# SARS-CoV-2 = system: SARS-CoV-2; design: method as in Schreiber et al., 2022; conditions: reduction in viral growth in cell lines; ref Schreiber et al., 2022; cited from earlier work
# MEK [3] = experiment: MEK inhibition in PBMCs of healthy human volunteers (pERK/ERK, Wes); format: in vivo
# Experimental: (§1) PBMCs were isolated from the same blood samples (30 µl mouse blood, 50 µl hamster blood, or 1 ml dog blood) used for pharmacokinetic analysis. After plasma separation as described in the section above (Blood sampling and preparation of plasma samples), the remaining red blood cells were lysed by adding 1 volume of red blood cell (RBC) lysis buffer (Thermo Fisher Scientific, Waltham, MA, United States) (300 µl for mice, 500 µl for hamster, and 10 ml for dogs). The samples were incubated for 15 min at RT and centrifuged at 500 x g for 5 min (RT). The supernatant was removed completely, and the pellet was washed twice with PBS. The PBMC cell pellets were store at −80°C until further analysis. PBMCs of 8 ml human blood were isolated using CPT^TM tubes. After a 20-min centrifugation at 1,650 x g at room temperature, the plasma was collected for PK analysis as described in the section above (Blood sampling and preparation of plasma samples). The PBMC layer was collected in a 15 ml tube (Greiner Bio-One, Frickenhausen, Germany), and washed twice with PBS by centrifugation at 300 x g for 10 min at RT. The PBMC pellets were store at −80°C until further PD assessment.
# (§2) The pharmacodynamic assessment was performed using the Wes™ (Simple Western™) system which uses capillary electrophoresis to separate, identify and quantify proteins of interest. A chemiluminescence signal for each identified protein is detected and the area under the peak is calculated, which is then used for quantification. The 0.1x Sample Buffer, 400 mM dithiothreitol (DTT) solution, 5x Fluorescence Master Mix, and the Biotinylated Ladder (ProteinSimple®, Abingdon, Oxford, United Kingdom) were prepared according to manufacturer’s instructions. For all species, PBMCs were lysed in 1x radioimmunoprecipitation assay (RIPA) buffer (containing 0.24% (w/v) tris base (Sigma-Aldrich, St. Louis, MO, United States), 0.88% (w/v) NaCl (Carl Roth GmbH, Karlsruhe, Germany), 0.2% (v/v) 500 mM EDTA (Sigma-Aldrich), 1% (v/v) Triton X-100 (Sigma-Aldrich), 0.5% (w/v) sodium deoxycholate (Sigma-Aldrich), 0.1% (w/v) sodium dodecyl sulfate (SDS) (Carl Roth), 10% (v/v) glycerol (Carl Roth), 0.05% phenylmethyl sulfonyl fluoride (PMSF) (Carl Roth), 0.01% Benzonase® Nuclease (Sigma-Aldrich), protease inhibitor cocktail (Roche, Basel, Switzerland), and phosphatase inhibitor cocktail (Roche) in H2O), further diluted with 0.1x Sample Buffer (ProteinSimple®, Abingdon, Oxford, United Kingdom) to adjust the protein concentration to 1 μg/μl. Then the 5x Fluorescence Master Mix in DTT (ProteinSimple®) was added, and the samples were denatured for 5 min at 95°C, loaded onto the assay plate and analyzed using specific antibodies. […] The anti-rabbit secondary antibody (Cat# DM-001) was also purchased from ProteinSimple® and was ready to use. Data were analyzed with Compass software for simple western (ProteinSimple®). Using the ratio of pERK to ERK of each sample compared to control (pre-dose), the level of ERK phosphorylation was calculated and then converted into the percentage level of MEK inhibition.
# MEK [4] = experiment: MEK inhibition in PBMCs of treated mice (pERK/ERK, Wes); format: in vivo, C57BL/6 mice
# Experimental: as §1, with “The PBMC layer was collected in a 15 ml tube (Greiner Bio-One, Frickenhausen, Germany), and washed twice with PBS by centrifugation at 300 x g for 10 min at RT. The PBMC pellets were store at −80°C until further PD assessment.” left out
# (§3) The pharmacodynamic assessment was performed using the Wes™ (Simple Western™) system which uses capillary electrophoresis to separate, identify and quantify proteins of interest. A chemiluminescence signal for each identified protein is detected and the area under the peak is calculated, which is then used for quantification. The 0.1x Sample Buffer, 400 mM dithiothreitol (DTT) solution, 5x Fluorescence Master Mix, and the Biotinylated Ladder (ProteinSimple®, Abingdon, Oxford, United Kingdom) were prepared according to manufacturer’s instructions. […] Then the 5x Fluorescence Master Mix in DTT (ProteinSimple®) was added, and the samples were denatured for 5 min at 95°C, loaded onto the assay plate and analyzed using specific antibodies. […] The anti-rabbit secondary antibody (Cat# DM-001) was also purchased from ProteinSimple® and was ready to use. Data were analyzed with Compass software for simple western (ProteinSimple®). Using the ratio of pERK to ERK of each sample compared to control (pre-dose), the level of ERK phosphorylation was calculated and then converted into the percentage level of MEK inhibition.
# in vivo [5] = conditions: beagle, dog, po, 30 mg/kg
# MEK [6] = experiment: MEK inhibition in PBMCs, summary regardless of species; format: in vivo, mice, hamsters, dogs, human
# Experimental: as §2
# [7] = healthy volunteers, n = 8
# MEK [8] = experiment: MEK inhibition in PBMCs of treated Syrian hamsters (pERK/ERK, Wes); format: in vivo; conditions: hamster PBMCs
# Experimental: as §1, with “The PBMC layer was collected in a 15 ml tube (Greiner Bio-One, Frickenhausen, Germany), and washed twice with PBS by centrifugation at 300 x g for 10 min at RT. The PBMC pellets were store at −80°C until further PD assessment.” left out
# as §3
# in vivo [9] = conditions: Syrian, hamster; for AUC(0-t) / Cmax / Tmax: po
# [10] = single oral dose 100 mg, vs pre-dose
# [11] = single oral dose 300 mg, vs pre-dose
# [12] = single oral dose 600 mg, vs pre-dose
# [13] = single oral dose 900 mg, vs pre-dose
smiles,measurement,setting,value
"O=C(O)c1ccc(F)c(F)c1Nc1ccc(I)cc1Cl [zapnometinib, 2-(2-Chloro-4-Iodophenylamino)-N-3,4-Difluoro benzoic acid]",half-life,clinical,1140 min
same,Cmax,"clinical; po, 100 mg",9000 ± 2000 ng/mL
same,Tmax,"clinical; po, 100 mg",2 h
same,half-life,"clinical; po, 100 mg",1180 ± 318 min
same,AUC(0-t),"clinical; po, 100 mg, AUC0-t, single oral dose 100 mg",115 ± 10 µg·h/mL
same,AUC(0-t),"clinical; po, 100 mg, AUC0–24 h, single oral dose 100 mg",84 ± 9 µg·h/mL
same,Cmax,"clinical; po, 300 mg",13000 ± 4000 ng/mL
same,Tmax,"clinical; po, 300 mg",4 h
same,half-life,"clinical; po, 300 mg",1190 ± 348 min
same,AUC(0-t),"clinical; po, 300 mg, AUC0-t, single oral dose 300 mg",241 ± 18 µg·h/mL
same,AUC(0-t),"clinical; po, 300 mg, AUC0–24 h, single oral dose 300 mg",157 ± 16 µg·h/mL
same,Cmax,"clinical; po, 600 mg",35000 ± 7000 ng/mL
same,Tmax,"clinical; po, 600 mg",4 h
same,half-life,"clinical; po, 600 mg",1310 ± 408 min
same,AUC(0-t),"clinical; po, 600 mg, AUC0-t, single oral dose 600 mg",617 ± 51 µg·h/mL
same,AUC(0-t),"clinical; po, 600 mg, AUC0–24 h, single oral dose 600 mg",411 ± 44 µg·h/mL
same,Cmax,"clinical; po, 900 mg",46000 ± 16000 ng/mL
same,Tmax,"clinical; po, 900 mg",4 h
same,half-life,"clinical; po, 900 mg",1420 ± 492 min
same,AUC(0-t),"clinical; po, 900 mg, AUC0-t, single oral dose 900 mg",1000 µg·h/mL
same,AUC(0-t),"clinical; po, 900 mg, AUC0–24 h, single oral dose 900 mg",629 ± 83 µg·h/mL
same,tolerability,[1],well tolerated
same,plasma binding,plasma binding,high plasma binding
same,IC50 (plasma concentration reducing ERK phosphorylation by 50% compared to pre-dose),MEK [2],12.5 µg/mL
same,anti-SARS-CoV-2 activity,SARS-CoV-2,potent anti-SARS-CoV-2 activity
same,MEK inhibition at Cmax,"MEK [3]; doses 100, 300 and 600 mg taken together",approximately 60%
same,MEK inhibition at 24 h,MEK [3]; [10],35 ± 25%
same,MEK inhibition at Cmax,MEK [3]; [10],63 ± 8%
same,MEK inhibition at 24 h,MEK [3]; [11],41 ± 26%
same,MEK inhibition at Cmax,MEK [3]; [11],61 ± 18%
same,MEK inhibition at 24 h,MEK [3]; [12],37 ± 20%
same,MEK inhibition at Cmax,MEK [3]; [12],64 ± 22%
same,MEK inhibition at 24 h,MEK [3]; [13],26 ± 26%
same,MEK inhibition at Cmax,MEK [3]; [13],79 ± 20%
same,"MEK inhibition, first maximum",MEK [4]; 2 h after first treatment,72 ± 10%
same,"MEK inhibition, second maximum",MEK [4]; 22 h after first treatment (14 h after second),80 ± 5%
same,MEK inhibition at end of observation period,MEK [4]; t = 24 h,66 ± 19%
same,half-life,in vivo [5],240 to 300 min
same,concentration to inhibit 50% of PBMC MEK activity,MEK [6]; across all species,approximately 10 μg/ml
same,"MEK inhibition in PBMCs, maximum observed",MEK [6]; regardless of species,up to 80%
same,MEK inhibition maintained 24 h after dosing,"MEK [6]; regardless of species, almost all zapnometinib eliminated from plasma",up to 50%
same,C24 h,[7]; single oral dose 100 mg,1 ± 0.4 µg/mL
same,C24 h,[7]; single oral dose 300 mg,4 ± 0.8 µg/mL
same,C24 h,[7]; single oral dose 600 mg,8 ± 2 µg/mL
same,C24 h,[7]; single oral dose 900 mg,16 ± 6 µg/mL
same,MEK inhibition 12 h after the first treatment,MEK [8]; 15 mg/kg BID,25 ± 15%
same,MEK inhibition at 24 h,"MEK [8]; 15 mg/kg BID, 15 mg/kg",43 ± 8%
same,MEK inhibition at 24 h,MEK [8]; 60 mg/kg OD,55 ± 26%
same,half-life,in vivo [9],480 min
same,AUC(0-t),in vivo [9]; 15 mg/kg,121 ± 4 µg·h/mL
same,Cmax,in vivo [9]; 15 mg/kg,15000 ± 1000 ng/mL
same,Tmax,in vivo [9]; 15 mg/kg,3 ± 1 h
same,AUC(0-t),in vivo [9]; 60 mg/kg,623 ± 87 µg·h/mL
same,Cmax,in vivo [9]; 60 mg/kg,61000 ± 2000 ng/mL
same,Tmax,in vivo [9]; 60 mg/kg,3 ± 1 h
